# Data as given in US10302660B2, “Methods useful for vitamin D deficiency and related disorders” (OPKO RENAL, LLC, priority 2008, dated 2019).
# “Also recorded” adds a separate entry of the source.
# How the values were obtained:
# [1] = Vitamin D hormone status: 1,25-(OH)2-D3 level by mass spectrometry in adenine-fed rats; format: in vivo; settings: versus control-fed animals (FIG. 3)
# [2] = system: parathyroid hormone (PTH); experiment: Serum intact PTH (iPTH Elisa Kit) in adenine-fed rats treated with vitamin D compounds; format: in vivo; settings: treated for one week, versus control-fed animals (FIG. 2)
# Text: To obtain an animal model of vitamin D deficiency, rats were fed an adenine-rich diet.
# PTH = experiment: Serum PTH by ELISA in uremic rats treated with 1,25-dihydroxyvitamin D3; format: in vivo, Sprague-Dawley rats; settings: 0.5 mcg/kg i.v. daily for 7 days (FIG. 12)
# Protocol: (§1) CYP24 and CYP27B1 expression was measured using the same protocol outlined above in Example 6 with respect to FIG. 11. Serum levels of 25(OH)D3 and 1,25-dihydroxyvitamin D3 were measured by LC-MS. Serum PTH was measured by ELISA IMMUTOPICS (San Clemente, Calif., USA) according to manufacturer's instructions. Briefly, serum samples were spiked with [26,27-^2H6] 25(OH)D3 or [25,26-^2H6] 1,25-dihydroxyvitamin D3 and dissolved in acetonitrile to serve as an internal standard. 1,25-dihydroxyvitamin D3 or 25(OH)D3 and internal standards were extracted from serum using Accubond II ODS-C18 100 mg, 1 mL SPE cartridges (Agilent Technologies). The collected fractions were evaporated to dryness under a steady stream of nitrogen gas and the residues reconstituted in 50 μL of methanol/H2O (80/20; v/v) and analyzed using LC-MS/MS (Waters Alliance HPLC—Waters Quattro Ultima mass spectrometer). Relative expression values are normalized to the vehicle-treated group (relative expression=1).
# [3] = Serum 25(OH)D3 by LC-MS in uremic rats treated with 1,25-dihydroxyvitamin D3; format: in vivo, Sprague-Dawley rats; settings: 0.5 mcg/kg i.v. daily for 7 days (FIG. 12)
# Protocol: as §1
# CYP24 [4] = experiment: CYP24 gene expression by real-time PCR in normal and adenine-induced uremic rats dosed with 1,25-dihydroxyvitamin D3; format: in vivo, Sprague-Dawley rats
# Protocol: Sprague-Dawley rats were treated i.v. daily with vehicle or 0.5 mcg/kg 1,25-dihydroxyvitamin D3 for 1 week. Organs were collected 24 hours after the last dosing. CYP24 gene expression was determined by real-time PCR.
# Sprague-Dawley rats were fed a standard diet (normal) or a uremia-inducing diet containing 0.75% adenine (uremic) for 4 weeks. Animals were then dosed i.v. daily with vehicle or 0.5 mcg/kg 1,25-dihydroxyvitamin D3 for 7 days. Organs were collected 24 hours after the final dosing. CYP24 gene expression was determined by real-time PCR and normalized to GAPDH levels. Relative expression values are normalized to the vehicle-treated group (relative expression=1).
# “*” denotes a significant difference in CYP24 expression between vehicle and 1,25-dihydroxyvitamin D3 treatment in normal and uremic rats. “**” represents a significant difference between vehicle-treated normal and uremic rats. “ ? ” denotes significant difference in CYP24 induction levels between normal and uremic rats treated with 1,25-dihydroxyvitamin D3. Significance was set at a p value cutoff of <0.05. Data are presented as mean±SEM. Numerals above each bar signifies relative fold induction to normal-vehicle.
# as §1, with “Relative expression values are normalized to the vehicle-treated group (relative expression=1).” left out
# CYP24 [5] = experiment: Kidney CYP24 mRNA (real-time PCR) in uremic (adenine) vitamin D deficient rats treated with 25-hydroxyvitamin D3; format: in vivo, Sprague Dawley rats; settings: uremic vitamin D deficient rats after treatment; 0.6 or 18 mcg/kg daily for two weeks (FIG. 18)
# Protocol: Sprague Dawley rats were fed either a normal diet (Adenine Vehicle group) or a vitamin D deficient diet (Vit. D def./Adenine Vehicle group) for a period of four weeks. Following this treatment, animals were orally administered, daily for two weeks, 100 mg of adenine. Animals were then injected daily for another two weeks with either 25-hydroxyvitamin D3 at 0.6 or 18 mcg/kg or vehicle as per the axis label in FIG. 18. Kidneys were collected 24 hours after the last injection and CYP24 mRNA levels were measured by real-time PCR.
# CYP24 [6] = experiment: Kidney CYP24 mRNA (real-time PCR) in vitamin D deficient rats treated with 25-hydroxyvitamin D3; format: in vivo, Sprague Dawley rats; settings: vitamin D deficient animals after treatment; 0.6, 3 or 18 mcg/kg daily for two weeks (FIG. 17)
# Protocol: Sprague Dawley rats were fed either a normal diet or a vitamin D deficient diet for a period of four weeks. Animals were then injected daily for two weeks with either 25-hydroxyvitamin D3 at 0.6, 3, or 18 mcg/kg or vehicle as per the axis label in FIG. 17. Kidneys were collected 24 hours after the last injection and CYP24 mRNA levels were measured by real-time PCR.
# [7] = 1,25-dihydroxyvitamin D3 levels in vitamin D deficient uremic versus vitamin D deficient rats dosed with 25-hydroxyvitamin D; format: in vivo; settings: after dosing for two weeks; vitamin D deficient uremic rats compared to vitamin D deficient animals (FIG. 19)
# HEK cells = experiment: [3H]-thymidine incorporation in HEK cells, 1,25-dihydroxyvitamin D3 with CYP24 inhibitor; format: cell-based; settings: cultured HEK cells, inhibitor at 0, 1, 10 and 50 nM (FIG. 15)
# Protocol: HEK cells were transferred into 96-well plates at 2000 cells/well density. After 2 days of growth in 96-well plates the cells were treated with 1,25-dihydroxyvitamin D3 at the final concentrations 10^−6-10^−11 M in combination with the MK-24(S)—S(O)(NH)-Ph-1 compound with the varied final concentration of 0, 1, 10 and 50 nM. After overnight treatment [^3H]-thymidine was added to cells, […]/well in KGM media for 16 h. The radioactivity incorporation was counted using a scintillation counter after the addition of […] of scintillation fluid. The data were represented as an incorporation of thymidine in cpm depending on 1,25-dihydroxyvitamin D3 concentration. Each data point represents at least 4 independent trials.
# CYP24 [8] = experiment: CYP24 induction (real-time PCR) in HEK cells with 1,25-dihydroxyvitamin D3 alone or with CYP24 inhibitor; format: cell-based; settings: 10 nM inhibitor with 10 nM 1,25-dihydroxyvitamin D3, 6, 24, 48 and 72 hours (FIG. 14)
# Protocol: HEK cells were seeded at 25,000 cells per well (24-well plate) and incubated with 1,25-dihydroxyvitamin D3 (10 nM) alone or with a CYP24 inhibitor (MK-24(S)—S(O)(NH)-Ph-1, see U.S. Pat. No. 7,101,865, compound I(a)) (10 nM) for 6, 24, 48 and 72 hours. Cells were collected and RNA was prepared using TRIZOL® reagent. CYP24 was quantified using real-time PCR.
# CYP24 [9] = experiment: CYP24 RNA expression in HPK1a-ras cells, 1,25-dihydroxyvitamin D3 with or without FGF23; format: cell-based; settings: 100 ng/mL FGF23 with 0, 1, 10, 100 nM calcitriol, after 8 hours (FIG. 16)
# Protocol: HPK1a-ras cells were treated with 0, 1, 10, and 100 nM of 1,25-dihydroxyvitamin D3 (calcitriol), with or without 100 ng/mL of FGF23, and CYP24 RNA expression was measured after 8 hours.
molecule,measurement,setting,value
"C=C1/C(=C\C=C2/CCC[C@]3(C)[C@@H]([C@H](C)/C=C/[C@H](C)C(C)(C)O)CC[C@@H]23)C[C@@H](O)C[C@@H]1O [1,25-(OH)2-D2, 1,25-dihydroxyvitamin D2]","1,25-(OH)2-D3 levels (vitamin D hormone status)",[1],did not significantly affect
same,iPTH level,[2],restored to a level similar to control-fed animals
"C=C1/C(=C\C=C2/CCC[C@]3(C)[C@@H]([C@H](C)CCCC(C)(C)O)CC[C@@H]23)C[C@@H](O)C[C@@H]1O [1,25-(OH)2-D3, 1,25-dihydroxyvitamin D3]",PTH,PTH,reduction
same,"1,25-(OH)2-D3 levels (vitamin D hormone status)",[1],restored to the level of control-fed animals
same,iPTH level,[2],restored to a level similar to control-fed animals
same,serum 25-(OH)D3 levels,[3],reduction
same,induced expression of CYP24,"CYP24 [4]; parathyroid gland, uremic compared to normal animals, 0.5 mcg/kg i.v. daily for 7 days (FIG. 11)",significantly induced; also recorded: markedly greater
same,CYP24 gene expression,"CYP24 [4]; tissues from both normal and uremic rats, 0.5 mcg/kg i.v. daily",strongly induced
same,CYP24 expression,"CYP24 [4]; uremic rats, 0.5 mcg/kg i.v. daily for 7 days (FIG. 12)",drastically induces
"C=C1CC[C@H](O)C/C1=C/C=C1\CCC[C@]2(C)[C@@H]([C@H](C)CCCC(C)(C)O)CC[C@@H]12 [25-OH-D3, 25-hydroxyvitamin D3]",CYP24 levels,CYP24 [5],do not increase
same,"1,25-(OH)2-D3 levels (vitamin D hormone status)",[1],did not significantly affect
same,CYP24 levels,CYP24 [6],increase to normal or higher levels
same,iPTH level,[2],restored to a level similar to control-fed animals
same,"levels of 1,25-dihydroxyvitamin D3",[7],lower
"C=C1/C(=C\C=C2/CCC[C@]3(C)[C@@H]([C@H](C)CCC[S@](=N)(=O)c4ccccc4)CC[C@@H]23)C[C@@H](O)C[C@@H]1O [MK-24(S)—S(O)(NH)-Ph-1, (5Z,7E)-(1S,3R)-24-(S)-phenylsulfoximine-25-nor-9,10-seco-5,7,10(19)-cholestatriene-1,3-diol]","enhancement of the anti-proliferative effects of 1,25-dihydroxyvitamin D3",HEK cells,approximately 3 orders of magnitude
same,"CYP24 induction by 1,25-dihydroxyvitamin D3 in the presence of CYP24 inhibitor",CYP24 [8],markedly extended
"FGF23: fibroblast growth factor-23 (protein, UniProt Q9GZV9 25-251, looked up) Fibroblast growth factor 23: YPNASPLLGSSWGGLIHLYTATARNSYHLQIHKNGHVDGAPHQTIYSALMIRSEDAGFVVITGVMSRRYLCMDFRGNIFGSHYFDPENCRFQHQTLENGYDVYHSPQYHFLVSLGRAKRAFLPGMNPPPYSQFLSRRNEIPLIHFNTPIPRRHTRSAEDDSERDPLNVLKPRARMTPAPASCSQELPSAEDNSPMASDPLGVVRGGRVNTHAGGTGPEGCRPFAKFI","CYP24 RNA production, effect with 1,25-dihydroxyvitamin D3",CYP24 [9],synergizes
